16 compounds from ChEMBL document CHEMBL1150069, “Ethnobotanical drug discovery based on medicine men's trials in the African savanna: screening of east African plants for antimicrobial activity II” (1993) can be followed below.

Values after ≈ are worked out from the molar mass of the structure shown.

The term MIC denotes the least concentration at which growth counts as inhibited. A low value points to greater potency.

In test [1] the test system is Staphylococcus aureus. The test can be described thus: Antimicrobial activity against Staphylococcus aureus NCTC 8530 after 2 days by twofold serial broth dilution method. It is filed as functional. Conditions: NCTC 8530, 48 h. In general terms: Broth dilution looks for growth in wells or tubes with falling amounts of substance.
Test [2] deals with Cyberlindnera jadinii. The test can be described thus: Antimicrobial activity against Candida utilis ATCC 42402 after 2 days by twofold serial broth dilution method. The following applies: Williopsis jadinii, ATCC 42402, 48 h. It is filed as functional.
Test [3] concerns Bacillus subtilis. Put plainly: Antimicrobial activity against Bacillus subtilis ATCC 6633 after 2 days by twofold serial broth dilution method. The test is classed as functional. Conditions: ATCC 6633, 48 h.
Test [4] concerns Mucor mucedo. Put plainly: Antimicrobial activity against Mucor mucedo IFO 7684 after 2 days by twofold serial broth dilution method. The test is classed as functional. The following applies: IFO 7684, 48 h.
Test [5] deals with Escherichia coli. Put plainly: Antimicrobial activity against Escherichia coli IFO 3545 after 2 days by twofold serial broth dilution method. The test is classed as functional. The following applies: IFO 3545, 48 h.
In test [6] the test system is Pseudomonas aeruginosa. The test can be described thus: Antimicrobial activity against Pseudomonas aeruginosa IAM 1007 after 2 days by twofold serial broth dilution method. The test is classed as functional. Conditions: IAM 1007, 48 h.
Test [7] deals with Saccharomyces cerevisiae. Put plainly: Antimicrobial activity against Saccharomyces cerevisiae IFO 0203 after 2 days by twofold serial broth dilution method. Conditions: IFO 0203, 48 h. The test is classed as functional.
In test [8] the test system is Wickerhamomyces anomalus. The test can be described thus: Antimicrobial activity against Hansenula anomala IFO 0136 after 2 days by twofold serial broth dilution method. It is filed as functional. Conditions: IFO 0136, 48 h.
The test system of test [9] is Aspergillus niger. Put plainly: Antimicrobial activity against Aspergillus niger ATCC 6275 after 2 days by twofold serial broth dilution method. The test is classed as functional. The following applies: ATCC 6275, 48 h.
Test [10] concerns Rhizopus microsporus var. chinensis. Put plainly: Antimicrobial activity against Rhizopus chinensis IFO 4772 after 2 days by twofold serial broth dilution method. It is filed as functional. The following applies: IFO 4772, 48 h.
In test [11] the test system is Sclerotinia. Put plainly: Antimicrobial activity against Sclerotinia libertiana Ss after 2 days by twofold serial broth dilution method. Conditions: 48 h.
For test [12], the system named is Penicillium crustosum. Put plainly: Antimicrobial activity against Penicillium crustosum Thom after 2 days by twofold serial broth dilution method. The test is classed as functional. The following applies: 48 h.
Test [13] concerns Schizosaccharomyces pombe. The test can be described thus: Antimicrobial activity against Schizosaccharomyces pombe IFO 0342 after 2 days by twofold serial broth dilution method. The test is classed as functional. The following applies: IFO 0342, 48 h.
Test [14] deals with Proteus vulgaris. The test can be described thus: Antimicrobial activity against Proteus vulgaris IAM 12003 after 2 days by twofold serial broth dilution method. It is filed as functional. Conditions: IAM 12003, 48 h.
The subject of test [15] is Micrococcus luteus. The test can be described thus: Antimicrobial activity against Micrococcus luteus IFO 3333 after 2 days by twofold serial broth dilution method. The following applies: IFO 3333, 48 h. It is filed as functional.

In the case of `C=C1[C@@H](C)CC[C@@]2(C)[C@H]1CC=C(C=O)[C@]2(O)C=O`, the MIC in [1] is over 100 µg/mL; in test [2] it was 3.13 µg/mL (≈ 12.6 µM); in [3] it was over 100 µg/mL; in [4], 25 µg/mL (≈ 101 µM); in test [5], over 100 µg/mL; in [6] it was over 100 µg/mL. In addition, the minimum inhibitory concentration (MIC) came out at 1.56 µg/mL (≈ 6.28 µM) in test [7]; 25 µg/mL (≈ 101 µM) in test [8]; 50 µg/mL (≈ 201 µM) in test [9]; 100 µg/mL (≈ 403 µM) in test [10]; 3.13 µg/mL (≈ 12.6 µM) in test [11]; 50 µg/mL (≈ 201 µM) in [12]. Also, the MIC was 25 µg/mL (≈ 101 µM) in test [13], over 100 µg/mL in test [14] and over 100 µg/mL in test [15].
With `CC(C)=CCc1cc([C@@H]2CC(=O)c3ccc(O)cc3O2)ccc1O` [ABYSSINONE II], the minimum inhibitory concentration (MIC) in test [1] was 50 µg/mL (≈ 154 µM); in test [2], 100 µg/mL (≈ 308 µM); in test [3], 50 µg/mL (≈ 154 µM); in test [4], 50 µg/mL (≈ 154 µM); in [5], over 100 µg/mL; in test [6] it was over 100 µg/mL. Besides, the MIC was 100 µg/mL (≈ 308 µM) in [7] and over 100 µg/mL in test [12].
As for `CC(C)=CCc1cc([C@@H]2CC(=O)c3ccc(O)cc3O2)cc(CC=C(C)C)c1O` [ABYSSINONE IV], the MIC in test [1] is 25 µg/mL (≈ 63.7 µM); in test [2], over 100 µg/mL; in [3], 12.5 µg/mL (≈ 31.8 µM); in test [4], over 100 µg/mL; in test [5] it was over 100 µg/mL; in test [6], over 100 µg/mL. Besides, the MIC in test [7] and in test [12] was over 100 µg/mL each time.
In the case of `CC1(C)C=Cc2cc([C@@H]3CC(=O)c4ccc(O)cc4O3)ccc2O1` [ABYSSINONE I], the minimum inhibitory concentration (MIC) in [1], in test [2], in [3], in test [4], in test [5] and in test [6] was over 100 µg/mL each time. The MIC in [7] and in test [12] was over 100 µg/mL in each case.
Consider `CC(C)=CCc1cc(/C=C/C(=O)c2ccc(O)cc2O)cc(CC=C(C)C)c1O` [ABYSSINONE VI], for which the MIC in test [1], in test [2], in [3], in [4], in [5] and in test [6] was over 100 µg/mL in each case. In addition, the MIC in [7] and in [12] was over 100 µg/mL in each case.
Regarding `CC(C)=CCc1cc([C@@H]2CC(=O)c3c(O)cc(O)cc3O2)cc(CC=C(C)C)c1O` [ABYSSINONE V], the minimal inhibitory concentration (MIC) in test [1] was 50 µg/mL (≈ 122 µM); in [2], over 100 µg/mL; in test [3], 25 µg/mL (≈ 61.2 µM); in test [4], over 100 µg/mL; in [5], over 100 µg/mL; in test [6], over 100 µg/mL. Further, the minimal inhibitory concentration (MIC) in test [7] and in [12] was over 100 µg/mL throughout.
`CC(=O)O[C@@H]1C=C(C=O)[C@](O)(C=O)[C@@]2(C)CCCC(C)(C)[C@H]12` [CINNAMODIAL]: the MIC in test [1], in test [2], in [3], in [4], in test [5] and in [6] was over 100 µg/mL in each case. The MIC in [7], in [9], in [10], in test [11], in test [12] and in test [14] was over 100 µg/mL in each case. Further, the MIC in [15] was over 100 µg/mL.
For `CC1(C)CCC[C@]2(C)[C@H](C=O)C(C=O)=CC[C@@H]12` [EPIPOLYGODIAL], the MIC in test [1], in [2], in test [3], in test [4], in [5] and in test [6] was over 100 µg/mL throughout. For the same compound, the MIC in [7], in test [8], in test [9], in [10], in test [11] and in test [12] was over 100 µg/mL in each case. The MIC in test [13], in test [14] and in test [15] was over 100 µg/mL in each case.
For `CC(C)=CCc1cc2c(cc1O)OC[C@H]1c3ccc(O)c(CC=C(C)C)c3O[C@@H]21` [ERYBRAEDIN C], the MIC in [1] is 3.13 µg/mL (≈ 7.97 µM); in test [2], over 100 µg/mL; in test [3], 3.13 µg/mL (≈ 7.97 µM); in test [4] it was over 100 µg/mL; in test [5], over 100 µg/mL; in [6] it was over 100 µg/mL. Also, the MIC in [7] and in test [12] was over 100 µg/mL in each case.
On to `COc1ccc2c(c1CC=C(C)C)O[C@H]1c3ccc(O)cc3OC[C@@]21O` [ERYTHRABYSSIN I], for which the MIC in test [1] is 12.5 µg/mL (≈ 35.3 µM); in test [2], 50 µg/mL (≈ 141 µM); in [3] it was 6.25 µg/mL (≈ 17.6 µM); in test [4], 25 µg/mL (≈ 70.5 µM); in test [5] it was over 100 µg/mL; in test [6], over 100 µg/mL. In addition, the MIC is 50 µg/mL (≈ 141 µM) in test [7] and over 100 µg/mL in test [12].
Turning to `CC1(C)CCC[C@@]2(C)[C@H]1[C@@H](O)C=C(C=O)[C@]2(O)C=O` [MUKAADIAL], the MIC in test [1], in test [2], in [3], in test [4], in test [5] and in test [6] was over 100 µg/mL throughout. In addition, the MIC in test [7] was over 100 µg/mL; in test [8] it was over 100 µg/mL; in test [9], over 100 µg/mL; in [10] it was over 100 µg/mL; in [11], 100 µg/mL (≈ 375 µM); in [12], over 100 µg/mL. The minimum inhibitory concentration (MIC) in test [13], in [14] and in test [15] was over 100 µg/mL in each case.
Regarding `CC1(C)C=Cc2c(ccc3c2O[C@H]2c4ccc(O)cc4OC[C@@H]32)O1` [PHASEOLIN], the MIC in test [1] was 12.5 µg/mL (≈ 38.8 µM); in test [2], 50 µg/mL (≈ 155 µM); in test [3], 6.25 µg/mL (≈ 19.4 µM); in [4], 12.5 µg/mL (≈ 38.8 µM); in [5], over 100 µg/mL; in test [6] it was over 100 µg/mL. Besides, the MIC in test [7] is 25 µg/mL (≈ 77.6 µM); in test [12], over 100 µg/mL.
On to `CC(C)=CCc1c(O)ccc2c1O[C@H]1c3ccc(O)cc3OC[C@@H]21` [PHASEOLLIDIN], for which the MIC in test [1] is 50 µg/mL (≈ 154 µM); in test [2] it was over 100 µg/mL; in test [3] it was 25 µg/mL (≈ 77.1 µM); in [4], 100 µg/mL (≈ 308 µM); in test [5], over 100 µg/mL; in test [6], over 100 µg/mL. For the same compound, the MIC in [7] and in [12] was over 100 µg/mL in each case.
For the compound `CC(C)=CCc1cc(C2CC(=O)c3c(O)cc(O)cc3O2)cc(CC=C(C)C)c1O` (stereo not drawn) [PHASEOLLIN], the MIC is 25 µg/mL (≈ 61.2 µM) in [1]; 100 µg/mL (≈ 245 µM) in test [2]; 25 µg/mL (≈ 61.2 µM) in test [3]; 50 µg/mL (≈ 122 µM) in test [4]; over 100 µg/mL in test [5]; over 100 µg/mL in test [6]. Moreover, the MIC in test [7] was 100 µg/mL (≈ 245 µM); in test [12], over 100 µg/mL.
Take `CC1(C)CCC[C@]2(C)[C@@H](C=O)C(C=O)=CC[C@@H]12` [POLYGODIAL]: the MIC in [1] is over 100 µg/mL; in [2], 1.56 µg/mL (≈ 6.66 µM); in [3], over 100 µg/mL; in test [4], 6.25 µg/mL (≈ 26.7 µM); in test [5] it was over 100 µg/mL; in [6], over 100 µg/mL. Also, the MIC turned out to be 0.78 µg/mL (≈ 3.33 µM) in test [7]; 1.56 µg/mL (≈ 6.66 µM) in [8]; 25 µg/mL (≈ 107 µM) in test [9]; 12.5 µg/mL (≈ 53.3 µM) in test [10]; 1.56 µg/mL (≈ 6.66 µM) in test [11]; 25 µg/mL (≈ 107 µM) in test [12]. For the same compound, the MIC in [13] is 6.25 µg/mL (≈ 26.7 µM); in [14], over 100 µg/mL; in test [15], over 100 µg/mL.
`CC1(C)CCC[C@@]2(C)[C@H]1CC=C(C=O)[C@]2(O)C=O` [WARBURGANAL]: the MIC in [1] was over 100 µg/mL; in test [2], 3.13 µg/mL (≈ 12.5 µM); in [3], over 100 µg/mL; in [4] it was 25 µg/mL (≈ 99.9 µM); in [5], over 100 µg/mL; in test [6], over 100 µg/mL. Besides, the MIC in test [7] came to 3.13 µg/mL (≈ 12.5 µM); in test [8], 12.5 µg/mL (≈ 49.9 µM); in test [9], 50 µg/mL (≈ 200 µM); in test [10] it was 100 µg/mL (≈ 399 µM); in [11], 3.13 µg/mL (≈ 12.5 µM); in test [12], 50 µg/mL (≈ 200 µM). Also, the MIC in test [13] is 12.5 µg/mL (≈ 49.9 µM); in test [14] it was over 100 µg/mL; in test [15] it was over 100 µg/mL.
